Data: ChEMBL document CHEMBL4507281, “Data for DCP probe BI-4394” (2021)

Columns and labels:
Conditions in all cases: Compound concentration 100.0 nM
[1] = molecular target: T1, Tyrosine-protein kinase JAK3 (Homo sapiens) (UniProt P52333)
T1 sequence (whole entry): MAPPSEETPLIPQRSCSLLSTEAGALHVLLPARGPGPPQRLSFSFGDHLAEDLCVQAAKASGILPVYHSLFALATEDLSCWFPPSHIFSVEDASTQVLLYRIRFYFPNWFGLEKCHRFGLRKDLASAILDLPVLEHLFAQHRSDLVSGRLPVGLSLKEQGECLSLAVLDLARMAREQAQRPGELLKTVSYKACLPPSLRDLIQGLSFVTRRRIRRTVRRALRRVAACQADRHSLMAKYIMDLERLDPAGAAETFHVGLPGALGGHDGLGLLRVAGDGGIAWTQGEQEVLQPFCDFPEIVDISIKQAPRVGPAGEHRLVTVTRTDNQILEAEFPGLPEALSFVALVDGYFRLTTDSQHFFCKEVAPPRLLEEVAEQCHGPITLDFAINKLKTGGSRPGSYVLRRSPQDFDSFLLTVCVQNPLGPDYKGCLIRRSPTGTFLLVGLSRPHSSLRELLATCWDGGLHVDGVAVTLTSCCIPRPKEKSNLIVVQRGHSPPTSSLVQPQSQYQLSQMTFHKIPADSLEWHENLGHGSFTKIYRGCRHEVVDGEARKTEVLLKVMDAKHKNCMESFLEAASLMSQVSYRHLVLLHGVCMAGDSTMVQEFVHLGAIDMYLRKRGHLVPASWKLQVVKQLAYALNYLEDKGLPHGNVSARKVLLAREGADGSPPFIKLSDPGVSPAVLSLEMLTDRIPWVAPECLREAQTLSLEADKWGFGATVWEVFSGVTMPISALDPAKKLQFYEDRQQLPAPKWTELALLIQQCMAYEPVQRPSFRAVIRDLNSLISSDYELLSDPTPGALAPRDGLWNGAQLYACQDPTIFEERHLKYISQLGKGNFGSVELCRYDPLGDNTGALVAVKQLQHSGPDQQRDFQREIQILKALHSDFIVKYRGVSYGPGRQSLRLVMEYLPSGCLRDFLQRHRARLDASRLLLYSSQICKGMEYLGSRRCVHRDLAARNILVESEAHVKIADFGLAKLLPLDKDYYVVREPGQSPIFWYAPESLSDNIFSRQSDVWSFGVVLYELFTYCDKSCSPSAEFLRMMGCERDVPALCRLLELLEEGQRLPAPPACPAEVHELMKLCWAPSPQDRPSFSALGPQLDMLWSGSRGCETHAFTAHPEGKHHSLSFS

[2] = molecular target: Muscle, skeletal receptor tyrosine-protein kinase (Homo sapiens) (UniProt O15146)
[3] = molecular target: T2, Serine/threonine-protein kinase Chk1 (Homo sapiens) (UniProt O14757)
T2 sequence (whole entry): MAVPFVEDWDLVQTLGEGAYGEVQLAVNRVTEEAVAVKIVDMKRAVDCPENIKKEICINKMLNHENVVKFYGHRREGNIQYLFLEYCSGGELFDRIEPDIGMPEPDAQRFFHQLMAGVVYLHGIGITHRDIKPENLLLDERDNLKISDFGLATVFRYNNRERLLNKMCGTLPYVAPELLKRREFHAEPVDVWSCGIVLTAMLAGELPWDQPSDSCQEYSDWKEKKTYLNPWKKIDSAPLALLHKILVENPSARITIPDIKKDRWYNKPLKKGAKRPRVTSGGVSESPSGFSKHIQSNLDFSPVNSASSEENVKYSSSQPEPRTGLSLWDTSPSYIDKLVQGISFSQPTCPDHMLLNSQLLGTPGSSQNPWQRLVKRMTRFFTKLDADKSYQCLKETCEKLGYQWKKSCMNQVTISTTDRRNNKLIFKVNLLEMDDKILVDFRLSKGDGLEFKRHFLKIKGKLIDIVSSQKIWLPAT

[4] = molecular target: Homeodomain-interacting protein kinase 4 (Homo sapiens) (UniProt Q8NE63)
[5] = molecular target: Serine/threonine-protein kinase Nek2 (Homo sapiens) (UniProt P51955)
Serine/threonine-protein kinase Nek2 (Homo sapiens), sequence (P51955 whole entry): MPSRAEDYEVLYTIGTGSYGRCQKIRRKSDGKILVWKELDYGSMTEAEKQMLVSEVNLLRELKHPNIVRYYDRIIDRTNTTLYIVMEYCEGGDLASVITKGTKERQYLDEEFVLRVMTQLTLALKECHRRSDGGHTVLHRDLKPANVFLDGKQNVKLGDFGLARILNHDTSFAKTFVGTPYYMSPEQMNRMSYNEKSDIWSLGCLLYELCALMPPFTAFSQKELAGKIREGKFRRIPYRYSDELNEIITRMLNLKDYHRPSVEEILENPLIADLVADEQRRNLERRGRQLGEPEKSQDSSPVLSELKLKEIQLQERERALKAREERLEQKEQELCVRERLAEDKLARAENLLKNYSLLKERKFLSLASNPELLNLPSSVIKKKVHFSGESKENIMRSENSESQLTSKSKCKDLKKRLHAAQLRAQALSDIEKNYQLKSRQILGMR

[6] = molecular target: Bone morphogenetic protein receptor type-1A (Homo sapiens) (UniProt P36894)
Bone morphogenetic protein receptor type-1A (Homo sapiens), sequence (P36894 whole entry): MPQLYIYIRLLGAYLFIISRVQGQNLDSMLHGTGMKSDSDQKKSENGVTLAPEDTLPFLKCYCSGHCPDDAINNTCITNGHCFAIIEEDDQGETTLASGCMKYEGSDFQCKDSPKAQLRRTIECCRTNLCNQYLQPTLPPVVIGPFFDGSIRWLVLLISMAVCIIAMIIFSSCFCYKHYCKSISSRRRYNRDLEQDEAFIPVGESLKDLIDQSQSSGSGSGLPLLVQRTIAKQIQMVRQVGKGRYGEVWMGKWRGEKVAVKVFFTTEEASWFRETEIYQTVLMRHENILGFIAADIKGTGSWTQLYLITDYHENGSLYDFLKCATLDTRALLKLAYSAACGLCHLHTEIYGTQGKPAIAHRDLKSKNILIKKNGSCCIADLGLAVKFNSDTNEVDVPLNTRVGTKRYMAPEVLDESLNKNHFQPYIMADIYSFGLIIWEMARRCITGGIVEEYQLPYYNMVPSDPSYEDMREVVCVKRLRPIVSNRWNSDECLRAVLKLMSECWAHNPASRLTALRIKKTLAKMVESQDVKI

[7] = molecular target: Mitotic checkpoint serine/threonine-protein kinase BUB1 (Homo sapiens) (UniProt O43683)
[8] = molecular target: Mitogen-activated protein kinase 1 (Homo sapiens) (UniProt P28482)
[9] = molecular target: Cyclin-dependent kinase 2 homolog (Plasmodium falciparum (isolate 3D7)) (UniProt P61075)
[10] = molecular target: ALK tyrosine kinase receptor (Homo sapiens) (UniProt Q9UM73)
[11] = molecular target: Mitogen-activated protein kinase 3 (Homo sapiens) (UniProt P27361)
[12] = molecular target: Cyclin-dependent kinase 9 (Homo sapiens) (UniProt P50750)
Cyclin-dependent kinase 9 (Homo sapiens), sequence (P50750 whole entry): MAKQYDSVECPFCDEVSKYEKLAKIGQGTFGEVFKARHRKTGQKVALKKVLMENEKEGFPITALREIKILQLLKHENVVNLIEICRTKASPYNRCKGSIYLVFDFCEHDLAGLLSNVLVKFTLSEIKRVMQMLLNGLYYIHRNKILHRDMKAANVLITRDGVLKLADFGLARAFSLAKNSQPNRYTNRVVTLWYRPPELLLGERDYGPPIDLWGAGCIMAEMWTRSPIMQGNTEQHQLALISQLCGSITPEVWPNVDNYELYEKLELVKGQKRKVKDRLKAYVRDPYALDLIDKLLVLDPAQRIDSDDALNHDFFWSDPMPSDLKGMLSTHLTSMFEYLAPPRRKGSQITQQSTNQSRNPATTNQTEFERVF

[13] = molecular target: Platelet-derived growth factor receptor alpha (Homo sapiens) (UniProt P16234)
Platelet-derived growth factor receptor alpha (Homo sapiens), sequence (P16234 whole entry): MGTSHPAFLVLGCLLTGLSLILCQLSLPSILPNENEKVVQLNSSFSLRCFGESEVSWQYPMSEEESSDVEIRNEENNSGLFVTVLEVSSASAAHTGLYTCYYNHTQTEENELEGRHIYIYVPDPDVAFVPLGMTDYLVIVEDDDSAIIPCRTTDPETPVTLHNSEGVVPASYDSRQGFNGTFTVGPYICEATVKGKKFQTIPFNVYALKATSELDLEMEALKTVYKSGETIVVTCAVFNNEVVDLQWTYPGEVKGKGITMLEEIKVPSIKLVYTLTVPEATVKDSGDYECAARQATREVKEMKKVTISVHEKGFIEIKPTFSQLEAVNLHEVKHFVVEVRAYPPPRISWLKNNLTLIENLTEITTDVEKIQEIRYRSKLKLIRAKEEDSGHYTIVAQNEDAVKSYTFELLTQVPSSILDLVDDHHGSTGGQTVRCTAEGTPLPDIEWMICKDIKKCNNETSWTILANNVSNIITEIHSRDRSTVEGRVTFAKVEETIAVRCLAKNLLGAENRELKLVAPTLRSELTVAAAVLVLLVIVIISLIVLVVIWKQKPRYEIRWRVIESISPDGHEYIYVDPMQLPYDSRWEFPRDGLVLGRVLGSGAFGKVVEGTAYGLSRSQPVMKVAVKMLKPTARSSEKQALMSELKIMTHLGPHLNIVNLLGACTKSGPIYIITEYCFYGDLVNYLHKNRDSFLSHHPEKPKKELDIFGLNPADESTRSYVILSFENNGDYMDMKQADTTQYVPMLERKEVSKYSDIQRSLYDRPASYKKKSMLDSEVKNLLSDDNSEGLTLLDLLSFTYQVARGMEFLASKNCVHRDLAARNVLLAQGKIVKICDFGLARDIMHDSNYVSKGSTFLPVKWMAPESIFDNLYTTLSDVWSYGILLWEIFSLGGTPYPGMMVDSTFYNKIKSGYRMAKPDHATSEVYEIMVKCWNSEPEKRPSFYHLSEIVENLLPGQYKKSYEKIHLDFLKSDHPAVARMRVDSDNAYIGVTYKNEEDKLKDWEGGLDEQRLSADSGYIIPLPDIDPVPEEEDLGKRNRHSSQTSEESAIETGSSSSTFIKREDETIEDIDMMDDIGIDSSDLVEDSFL

[14] = molecular target: Serine/threonine-protein kinase OSR1 (Homo sapiens) (UniProt O95747)
Serine/threonine-protein kinase OSR1 (Homo sapiens), sequence (O95747 2-527 limits assumed): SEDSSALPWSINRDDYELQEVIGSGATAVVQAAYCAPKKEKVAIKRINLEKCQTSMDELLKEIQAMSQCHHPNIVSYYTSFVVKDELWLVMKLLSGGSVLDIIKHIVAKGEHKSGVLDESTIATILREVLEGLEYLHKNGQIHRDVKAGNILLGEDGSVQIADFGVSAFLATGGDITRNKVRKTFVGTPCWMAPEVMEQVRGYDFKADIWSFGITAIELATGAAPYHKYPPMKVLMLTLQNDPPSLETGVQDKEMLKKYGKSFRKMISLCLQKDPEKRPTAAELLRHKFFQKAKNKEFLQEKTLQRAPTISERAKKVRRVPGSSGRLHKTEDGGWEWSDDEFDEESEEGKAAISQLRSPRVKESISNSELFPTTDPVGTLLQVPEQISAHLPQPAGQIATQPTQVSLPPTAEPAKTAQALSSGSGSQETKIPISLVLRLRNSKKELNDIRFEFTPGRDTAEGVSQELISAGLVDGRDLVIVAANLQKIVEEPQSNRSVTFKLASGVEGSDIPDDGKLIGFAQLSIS

[15] = molecular target: Serine/threonine-protein kinase WNK3 (Homo sapiens) (UniProt Q9BYP7)
[16] = molecular target: Phosphatidylinositol 4,5-bisphosphate 3-kinase catalytic subunit alpha isoform (Homo sapiens) (UniProt P42336)
[17] = molecular target: Activin receptor type-2B (Homo sapiens) (UniProt Q13705)
Activin receptor type-2B (Homo sapiens), sequence (Q13705 whole entry): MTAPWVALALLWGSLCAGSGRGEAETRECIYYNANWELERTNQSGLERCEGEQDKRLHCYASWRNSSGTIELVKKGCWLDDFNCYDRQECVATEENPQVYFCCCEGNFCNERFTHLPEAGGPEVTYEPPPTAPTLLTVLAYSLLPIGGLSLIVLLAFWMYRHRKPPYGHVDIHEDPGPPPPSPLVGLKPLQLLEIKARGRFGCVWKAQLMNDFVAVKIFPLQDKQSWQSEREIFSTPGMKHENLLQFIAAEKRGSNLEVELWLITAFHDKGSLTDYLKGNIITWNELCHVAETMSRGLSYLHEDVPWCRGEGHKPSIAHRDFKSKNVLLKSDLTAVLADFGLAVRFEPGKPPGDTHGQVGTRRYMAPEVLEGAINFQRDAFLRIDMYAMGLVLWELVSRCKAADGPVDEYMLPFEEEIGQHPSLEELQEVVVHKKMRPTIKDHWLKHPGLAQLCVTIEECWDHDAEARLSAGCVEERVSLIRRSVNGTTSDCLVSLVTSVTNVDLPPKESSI

[18] = tested on: Mast/stem cell growth factor receptor Kit (Homo sapiens), P10721 [V559D,V654A]
[19] = molecular target: Proto-oncogene tyrosine-protein kinase receptor Ret (Homo sapiens) (UniProt P07949)
[20] = molecular target: SNF-related serine/threonine-protein kinase (Homo sapiens) (UniProt Q9NRH2)
SNF-related serine/threonine-protein kinase (Homo sapiens), sequence (Q9NRH2 whole entry): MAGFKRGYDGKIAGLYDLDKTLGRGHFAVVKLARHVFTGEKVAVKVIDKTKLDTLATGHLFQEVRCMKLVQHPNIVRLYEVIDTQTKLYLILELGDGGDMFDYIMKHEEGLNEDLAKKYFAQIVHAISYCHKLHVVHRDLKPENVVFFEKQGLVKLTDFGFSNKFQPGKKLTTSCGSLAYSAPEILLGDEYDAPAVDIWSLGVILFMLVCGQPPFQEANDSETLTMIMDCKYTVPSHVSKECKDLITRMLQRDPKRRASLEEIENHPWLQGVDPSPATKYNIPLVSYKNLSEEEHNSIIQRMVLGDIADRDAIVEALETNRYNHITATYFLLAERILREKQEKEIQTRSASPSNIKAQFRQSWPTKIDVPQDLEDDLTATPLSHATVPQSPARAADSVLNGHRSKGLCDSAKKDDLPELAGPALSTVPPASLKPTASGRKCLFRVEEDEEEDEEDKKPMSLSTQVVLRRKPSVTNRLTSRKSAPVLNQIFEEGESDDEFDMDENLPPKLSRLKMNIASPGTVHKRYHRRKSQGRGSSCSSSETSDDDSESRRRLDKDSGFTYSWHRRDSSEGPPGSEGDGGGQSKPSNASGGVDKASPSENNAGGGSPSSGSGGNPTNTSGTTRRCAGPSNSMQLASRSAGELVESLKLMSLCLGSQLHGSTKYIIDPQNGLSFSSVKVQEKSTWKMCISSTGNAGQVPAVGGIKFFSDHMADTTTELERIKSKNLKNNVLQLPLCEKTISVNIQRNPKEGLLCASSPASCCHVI

[21] = molecular target: Serine/threonine-protein kinase PAK 1 (Homo sapiens) (UniProt Q13153)
Serine/threonine-protein kinase PAK 1 (Homo sapiens), sequence (Q13153 whole entry): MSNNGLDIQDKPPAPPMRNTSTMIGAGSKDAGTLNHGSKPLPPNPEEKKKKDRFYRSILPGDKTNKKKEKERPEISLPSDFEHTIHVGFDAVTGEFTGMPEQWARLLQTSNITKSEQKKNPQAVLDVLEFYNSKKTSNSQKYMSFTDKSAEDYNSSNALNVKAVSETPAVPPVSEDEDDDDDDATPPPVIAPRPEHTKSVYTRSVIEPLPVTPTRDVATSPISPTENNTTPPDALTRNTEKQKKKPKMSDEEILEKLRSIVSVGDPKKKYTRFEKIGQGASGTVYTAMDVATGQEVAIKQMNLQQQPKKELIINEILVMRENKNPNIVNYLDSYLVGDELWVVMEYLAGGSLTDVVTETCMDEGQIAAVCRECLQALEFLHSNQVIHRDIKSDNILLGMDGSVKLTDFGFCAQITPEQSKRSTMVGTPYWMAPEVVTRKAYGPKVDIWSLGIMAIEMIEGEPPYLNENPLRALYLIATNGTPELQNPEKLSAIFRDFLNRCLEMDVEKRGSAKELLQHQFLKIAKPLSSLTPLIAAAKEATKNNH

[22] = molecular target: Peripheral plasma membrane protein CASK (Homo sapiens) (UniProt O14936)
[23] = molecular target: Protein-tyrosine kinase 6 (Homo sapiens) (UniProt Q13882)

For CCOC(=O)c1cc2cc(-c3cc(C(=O)NCc4ccc(C(=O)O)cc4)nn3C)ccc2[nH]1 [BI 4394], the residual activity [1] was 82%, the residual activity [2] was 64% and the residual activity [3] was 100%. It also gave a residual activity [4] of 87%, a residual activity [5] of 99% and a residual activity [6] of 87%. For the same compound, the residual activity [7] was 100%, the residual activity [8] was 99% and the residual activity [9] was 65%. It also gave a residual activity [10] of 98%, a residual activity [11] of 88% and a residual activity [12] of 97%. For the same compound, the residual activity [13] was 86%, the residual activity [14] was 100% and the residual activity [15] was 96%. For the same compound, the residual activity [16] was 92%, the residual activity [17] was 91% and the residual activity [18] was 100%. It also gave a residual activity [19] of 87%, a residual activity [20] of 80% and a residual activity [21] of 92%. It also gave a residual activity [22] of 71% and a residual activity [23] of 98%.

With Cn1nc(C(=O)NCc2ccc(C(=O)O)cc2)cc1-c1ccc2[nH]ccc2c1 [BI 4395] the residual activity [1] was 65%, the residual activity [2] was 95% and the residual activity [3] was 83%. For the same compound, the residual activity [4] was 100%, the residual activity [5] was 95% and the residual activity [6] was 94%. It also gave a residual activity [7] of 83%, a residual activity [8] of 94% and a residual activity [9] of 74%. The residual activity [10] was 80%, the residual activity [11] was 94% and the residual activity [12] was 82%. The residual activity [13] was 100%, the residual activity [14] was 88% and the residual activity [15] was 67%. It also gave a residual activity [16] of 41%, a residual activity [17] of 100% and a residual activity [18] of 95%. The residual activity [19] was 83%, the residual activity [20] was 92% and the residual activity [21] was 86%. The residual activity [22] was 69% and the residual activity [23] was 89%.
